Here are results for 12 compounds from ChEMBL document CHEMBL1201862, “PubChem BioAssay data set” (2004).

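Cells were grown in 96-well plates and exposed to each compound for 48 hours at five concentrations; endpoints were interpolated linearly between bracketing concentrations, or set to the highest concentration if not reached. GI50 = concentration required for 50% inhibition of growth.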 Activity calls are given as the source filed them. Rule as the data show it: active = GI50 up to about 1.1 µM and inactive = higher.

Test systems include A549; ACHN; EKVX; HCC 2998; HL-60; K562; LXFL 529; M14; NCI-H460; OVCAR-5; RPMI-8226; RXF 393; SW-620; UACC-62; UO-31; MCF7; MDA-MB-231; MDA-N; NCI/ADR-RES; PC-3.
What all share (experiment): NCI tumour cell line growth inhibition, 48 h

Turning to `Cc1ccc(C(=O)C(C)N)cc1` (stereo not given), the GI50 with A549, with ACHN, with EKVX, in the assay with HCC 2998, with HL-60 and in the assay on K562 was > 100 µM (inactive) each time. The GI50 in the assay on LXFL 529, with M14, in the assay with NCI-H460, with OVCAR-5, in the assay with RPMI-8226 and with RXF 393 was > 100 µM (inactive) each time. Further, the GI50 in the assay on SW-620, in the assay on UACC-62 and with UO-31 was > 100 µM (inactive) throughout.

As to `COc1cc2c(cc1OC)C(=O)N1CCCC1C(=O)S2` (stereo not given), the GI50 in the assay on A549, with ACHN, with EKVX, with HCC 2998, in the assay with HL-60 and in the assay on K562 was > 100 µM (inactive) each time. Moreover, the GI50 with LXFL 529, with M14, in the assay with NCI-H460, with OVCAR-5, in the assay with RPMI-8226 and in the assay with RXF 393 was > 100 µM (inactive) in each case. Besides, the GI50 was > 100 µM (inactive) in the assay on SW-620, 35.6 µM (inactive) in the assay on UACC-62 and > 100 µM (inactive) with UO-31.

With `Nc1nc(SCc2ccccc2[N+](=O)[O-])c2[nH]cnc2n1`, the GI50 with A549 was > 76.6 µM (inactive); with ACHN it was > 57.8 µM (inactive); in the assay with EKVX, > 53.5 µM (inactive); in the assay on HCC 2998, > 41.5 µM (inactive); with HL-60, > 53.6 µM (inactive); in the assay on K562, > 55.2 µM (inactive). The GI50 was > 100 µM (inactive) in the assay with LXFL 529; > 53.3 µM (inactive) in the assay with M14; 51.5 µM (inactive) with MCF7; 39.4 µM (inactive) in the assay on MDA-MB-231; 27.9 µM (inactive) with MDA-N; > 40.2 µM (inactive) in the assay with NCI-H460. For the same compound, the GI50 in the assay on NCI/ADR-RES is 26.7 µM (inactive); in the assay with OVCAR-5, 42.3 µM (inactive); in the assay on PC-3 it was 31.5 µM (inactive); in the assay with RPMI-8226, > 47.2 µM (inactive); with RXF 393, > 62.8 µM (inactive); in the assay with SW-620, > 73.6 µM (inactive). For the same compound, the values for the GI50 in the assay with UACC-62 and in the assay with UO-31 were 37.3 µM (inactive) and > 66.5 µM (inactive), respectively.

Take `O=C1C(Br)=C(Br)C(=O)c2ccc(=O)ccc21`: the GI50 is 70.6 µM (inactive) with A549; 17.6 µM (inactive) with ACHN; 36.6 µM (inactive) in the assay on EKVX; > 85.1 µM (inactive) in the assay on HCC 2998; 8.47 µM (inactive) in the assay on HL-60; 30.7 µM (inactive) in the assay with K562. Besides, the GI50 with LXFL 529 is 17.7 µM (inactive); in the assay on M14, 17.9 µM (inactive); with MCF7 it was 18.6 µM (inactive); in the assay with MDA-MB-231, 19.9 µM (inactive); in the assay with MDA-N it was 22.6 µM (inactive); in the assay with NCI-H460, 38.8 µM (inactive). Besides, the GI50 in the assay on NCI/ADR-RES is 20 µM (inactive); with OVCAR-5, 50.5 µM (inactive); with PC-3, > 56.5 µM (inactive); in the assay with RPMI-8226, 20 µM (inactive); in the assay with RXF 393 it was 19.2 µM (inactive); in the assay with SW-620, 20.8 µM (inactive). The GI50 with UACC-62 is 19.5 µM (inactive); in the assay with UO-31, 17.6 µM (inactive).

Turning to `O=C(O)C12C3CCC(C3)C1(C(=O)O)C1CCC2C1` (stereo not given), the GI50 with A549 was > 100 µM (inactive); with ACHN, > 100 µM (inactive); in the assay on EKVX, > 100 µM (inactive); in the assay on HCC 2998, > 100 µM (inactive); in the assay with HL-60, 39.6 µM (inactive); in the assay on K562 it was 89.7 µM (inactive). Besides, the GI50 is > 100 µM (inactive) in the assay with LXFL 529; > 100 µM (inactive) in the assay on M14; 81.3 µM (inactive) in the assay on NCI-H460; > 100 µM (inactive) with OVCAR-5; 23.3 µM (inactive) in the assay on RPMI-8226; 34.4 µM (inactive) in the assay with RXF 393. Moreover, the GI50 was 18.4 µM (inactive) in the assay on SW-620, > 100 µM (inactive) in the assay with UACC-62 and > 100 µM (inactive) with UO-31.

In the case of `CCOC(=O)C(=O)Nc1ccc([N+](=O)[O-])cc1C#N`, the GI50 in the assay with A549, in the assay with ACHN, with EKVX, in the assay with HCC 2998, in the assay on HL-60 and in the assay on K562 was > 100 µM (inactive) each time. Further, the GI50 with LXFL 529, in the assay with M14, in the assay on NCI-H460, in the assay on OVCAR-5, with RPMI-8226 and with RXF 393 was > 100 µM (inactive) each time. Moreover, the GI50 in the assay on SW-620, with UACC-62 and in the assay with UO-31 was > 100 µM (inactive) in each case.

As for `CCCOc1ccc(/C=C/c2cc(OC)c(OC)c(OC)c2)cc1`, the GI50 with A549 was 0.452 µM (active); in the assay with ACHN, 0.697 µM (active); with EKVX, 6.53 µM (inactive); in the assay with HCC 2998, 3.02 µM (inactive); in the assay on HL-60, 0.155 µM (active); with K562, 0.0733 µM (active). In addition, the GI50 is 0.558 µM (active) in the assay with LXFL 529; 0.252 µM (active) with M14; 0.439 µM (active) in the assay with NCI-H460; 28 µM (inactive) with OVCAR-5; 0.456 µM (active) with RPMI-8226; 0.254 µM (active) in the assay with RXF 393. The GI50 in the assay on SW-620 is 0.218 µM (active); with UACC-62, 0.215 µM (active); in the assay on UO-31, 0.482 µM (active).

On to `CC(=O)OCC1OC(n2c(=O)[nH]c(=O)c3nn[nH]c32)C(OC(C)=O)C(OC(C)=O)C1OC(C)=O` (stereo not given), for which the GI50 in the assay with A549, in the assay with ACHN, in the assay with EKVX, in the assay on HCC 2998, with HL-60 and in the assay on K562 was > 100 µM (inactive) in each case. For the same compound, the GI50 in the assay on LXFL 529, in the assay on M14, with NCI-H460, in the assay with OVCAR-5, with RPMI-8226 and in the assay on RXF 393 was > 100 µM (inactive) in each case. The GI50 in the assay on SW-620, in the assay with UACC-62 and in the assay with UO-31 was > 100 µM (inactive) each time.

In the case of `CCO[C@]12C[C@H](OC)[C@@]3(O)CC(C1[C@H]3OCc1ccccc1)C13C4C2[C@H](OC)C1[C@](COC)(CN4CC)[C@H](O)C[C@@H]3OC` (stereo not given in full), the GI50 in the assay with A549, in the assay with ACHN, with EKVX, with HCC 2998, in the assay with HL-60 and in the assay on K562 was > 100 µM (inactive) throughout. In addition, the GI50 with LXFL 529, in the assay with M14, in the assay with NCI-H460, with OVCAR-5, in the assay on RPMI-8226 and in the assay with RXF 393 was > 100 µM (inactive) each time. The GI50 in the assay on SW-620, in the assay with UACC-62 and in the assay on UO-31 was > 100 µM (inactive) throughout.

In the case of `Cc1ccc2[nH]c3c4c5ccccc5nc-4c[nH]c3c2c1`, the GI50 with A549 is 17.2 µM (inactive); in the assay with ACHN it was 16.7 µM (inactive); with EKVX, 15.2 µM (inactive); in the assay on HCC 2998, 16.1 µM (inactive); in the assay with HL-60, 16.6 µM (inactive); with K562, 12.6 µM (inactive). The GI50 with LXFL 529 was 19.2 µM (inactive); in the assay on M14 it was 18.2 µM (inactive); in the assay on NCI-H460, 15.3 µM (inactive); with OVCAR-5 it was 17.1 µM (inactive); in the assay with RPMI-8226 it was 18.1 µM (inactive); in the assay with RXF 393, 13.8 µM (inactive). In addition, the GI50 in the assay on SW-620 was 13.7 µM (inactive); in the assay on UACC-62, 16.4 µM (inactive); in the assay on UO-31, 16.7 µM (inactive).

On to `CNC(C)Cc1ccccc1O` (stereo not given), for which the GI50 in the assay with A549, in the assay on ACHN, with EKVX, in the assay on HCC 2998, with HL-60 and in the assay with K562 was > 100 µM (inactive) each time. Further, the GI50 in the assay with LXFL 529, in the assay on M14, in the assay on NCI-H460, in the assay with OVCAR-5, in the assay with RPMI-8226 and in the assay on RXF 393 was > 100 µM (inactive) in each case. The GI50 in the assay with SW-620, with UACC-62 and in the assay on UO-31 was > 100 µM (inactive) throughout.

For the compound `Cc1cc(N(CCC#N)CCC#N)ccc1/C=C1\N=C(c2cc([N+](=O)[O-])ccc2Cl)N(NC(=O)c2ccc(/N=C\c3ccc(N(CCC#N)S(C)(=O)=O)cc3C)cc2)C1=O`, the GI50 in the assay with A549 was > 100 µM (inactive); in the assay on ACHN, 89.9 µM (inactive); in the assay on EKVX it was > 100 µM (inactive); with HCC 2998, > 100 µM (inactive); in the assay on HL-60 it was 61.4 µM (inactive); with K562 it was 31.9 µM (inactive). Besides, the GI50 with LXFL 529 was 64.3 µM (inactive); in the assay on M14, 37.9 µM (inactive); in the assay on NCI-H460, > 100 µM (inactive); in the assay with OVCAR-5 it was > 100 µM (inactive); in the assay on RPMI-8226 it was > 100 µM (inactive); in the assay with RXF 393 it was > 100 µM (inactive). The GI50 was > 100 µM (inactive) in the assay on SW-620, 24.2 µM (inactive) with UACC-62 and > 100 µM (inactive) in the assay on UO-31.
